Test results reported in US20090196854A1, “METHODS AND COMPOSITIONS FOR USE OF CRL 5803 CELLS FOR EXPRESSION OF BIOTHERAPEUTICS AND ENCAPSULATED CELL-BASED DELIVERY” (priority 2008, published 2009).
≈ marks a conversion by molar mass, not a printed value.

How the values were obtained:
ARPE-19 = format: cell-based, human
Description: (§1) The cell lines were plated in 48 well plates at an appropriate dilution of cells for each cell line to provide for rapid entry into log phase of growth. The various concentrations of the selection drugs were added so that the drugs were present at the initiation of log phase growth and viable cells were determined after 7-10 days of culture. The screening used data for functional mass at the end of the study to express viable cells as a percentage of the vehicle, or no-treatment control wells. […] The % viable cell mass data was plotted, and fitted typically with a four-parameter equation. The fitted equation was used to calculate the IC50 dose. The drugs tested were G418 (inactivated by neomycin phophotransferase, NPT), hygromycin (inactivated by hygromycin phosphotansferse, HPT), blasticidin (inactivated by blasticidin deaminase, BSD), and zeocin (bound by bleomycin binding protein, BBP). These antibiotics were obtained from Invitrogen/Gibco (Invitrogen SA, Barcelona).
(§2) The drugs, G418, Zeocin, hygromycin, and blasticidin were obtained and used as described earlier. The most important aspect of these studies was to identify the concentration needed to kill all non-transfected cells.

CRL5803 = format: cell-based, human
Description: as §1, §2

CCL205 = format: cell-based, human
Description: as §1, §2

CRL1440 = format: cell-based, human
Description: as §1, §2

CRL5867 = assay: selection drug and ouabain sensitivity screen; format: cell-based, human; settings: resistant if IC50 >1000 μg/ml (G418, hygromycin), ouabain 10^-4 M range
Description: (§3) The cell lines were plated in 48 well plates at an appropriate dilution of cells for each cell line to provide for rapid entry into log phase of growth. The various concentrations of the selection drugs were added so that the drugs were present at the initiation of log phase growth and viable cells were determined after 7-10 days of culture. The screening used data for functional mass at the end of the study to express viable cells as a percentage of the vehicle, or no-treatment control wells. Each treatment concentration was based on results for at least 3-4 wells. The % viable cell mass data was plotted, and fitted typically with a four-parameter equation. The fitted equation was used to calculate the IC50 dose. The drugs tested were G418 (inactivated by neomycin phophotransferase, NPT), hygromycin (inactivated by hygromycin phosphotansferse, HPT), blasticidin (inactivated by blasticidin deaminase, BSD), and zeocin (bound by bleomycin binding protein, BBP). These antibiotics were obtained from Invitrogen/Gibco (Invitrogen SA, Barcelona). Cells were considered to be resistant if the IC50 was >1000 μg/ml for G418, hygromycin, and zeocin, or concentrations >20 μg/ml for blasticidin. Although ouabain is not a classical selection drug, the rodent gene for Na—K ATPase shifts the sensitivity into the 10^−4 M range, while human cells are sensitive in the 10^−9 to 10^−6 M range, thus IC50s in the 10^−4 M range were taken to indicate resistance.

CRL1440 polyclones = assay: Blsd dose-response of growth in BSD-transfected polyclones; format: cell-based, human
Excerpt: (§4) Each cell line was transfected under conditions optimized for that specific cell line, and with each of three different constructs. Within 2-3 days of transfection the cultures were selected with blasticidin at the appropriate selection concentration identified for that cell line.
(§5) The three plasmid constructs tested differed in the promoter used to control the expression of the BSD gene (commercial plasmids from Invitrogen). At the end of selection (10-14 days) the surviving cells were passaged to establish a B1sd-resistant polyclone. Each Blsd-resistant polyclonal cell line was analyzed for the capacity to grow in Blsd at varying concentrations. The Blsd dose-response curve was plotted (growth vs dose) and the IC50 calculated for each promoter construct. The IC50 was taken to indicate the average BSD enzyme expression and activity level, and to indicate the relative activity of the regulatory elements in each cell line context.

ARPE-19 polyclones = assay: as above; format: cell-based, human
Excerpt: as §4, §5

CRL 5803 polyclones = assay: as above; format: cell-based, human; settings: for IC50 for Blsd-resistant growth: CRL 5803
Excerpt: as §4, §5

CCL205 polyclones = assay: as above; format: cell-based, human
Excerpt: as §4, §5

CRL1803 = assay: selection drug and ouabain sensitivity screen; format: cell-based, human; settings: ouabain IC50 in the 10^-4 M range taken as resistance
Description: as §3

CRL5808 = assay: selection drug and ouabain sensitivity screen; format: cell-based, human; settings: ouabain IC50 in the 10^-4 M range taken as resistance
Description: as §3

ARPE-19 cells = assay: sensitivity to 5-FU, growth monitored with resazurin
Description: (§6) The newly selected cell types were then screened for r sensitivity to 5-fluorouracil (5-FU). This screening was accomplished by plating the cell lines in 48 well plates, and after overnight attachment adding varying concentrations of 5-FU from 0-500 μM. The growth of the cells was then monitored at 1-2 day intervals with the fluorescent substrate resazurin.

[1] = test system: all cell lines except for ARPE-19 and A2058 (CRL 5803, CCL-205, CRL1440); assay: as above; format: cell-based, human; settings: all cell lines except ARPE-19 and A2058
A2058 = test system: A2058
Description: as §6

BON cell line = assay: 5-FU cytotoxicity screen; format: cell-based; settings: Homo sapiens, neutral red endpoint after 5-7 days, read-out: concentration required to kill 50% of the cells
Description: Drug Exposure and elimination of BON cell line: The drug 5-FU was dissolved in DMSO at a concentration of 0.5 M, and this stock used to make media with micromolar concentrations of the drug ([…]). Cells plated in 24 or 48 well plates in growth phase were cultured with 5-FU supplemented medium for 1-2 weeks. […] This growth measurement was conducted during exposure and if cells grew or survived, growth was followed in the weeks subsequent to removal of 5-FU.
In initial screening, an endpoint assay of viability was performed with the uptake of neutral red (50 μg/ml for 1 h) after 5-7 days, later studies of the selected cell lines used resazurin to monitor growth, as well as viable cell mass.

K3.31 = assay: 5FC and 5FU dose-response in BDNF-expressing CRL 5803 line and CD transfectants; format: cell-based; settings: Homo sapiens; K3.31; read-out: IC50 for 5FU
Description: (§7) CRL 5803 cells expressing BDNF and CD: The CRL 5803 cell line was transfected with BDNF and clones expressing BDNF were selected. These selected clones were expanded to provide cells for transfections with cytosine deaminase plasmid (CX014). Four CD gene transfection studies were performed with three different BDNF-expressing cell lines. For each cell line at least 24 resistant clones were picked and screened for sensitivity to 100 μM 5FC. The clones with the lowest survival in 5FC (as percent of control wells) were then expanded for dose-response studies with 5FC and 5FU. Cytotoxicity of 5FC was used as an indication of CD gene expression, and this screen provided 6-9 clones per transfection. The IC50 for 5FU indicated the maximum potential cytotoxicity of the prodrug, 5FC, in cells expressing sufficient levels of CD gene and protein.

K3.3 = assay: as above; format: cell-based; settings: Homo sapiens; K3.3; read-out: IC50 for 5FU
Description: as §7

K3.4 = assay: as above; format: cell-based; settings: Homo sapiens, read-out: IC50 for 5-FU
Description: as §7

[2] = test system: human cell lines (CCL205, A2058, CRL1440, ARPE-19, CRL 5803); format: cell-based
HTB10 = assay: sensitivity to killing by 2-deoxyglucose; format: cell-based, human
Description: (§8) The glucose requirements of CRL 5803 was also determined and compared to the HTB10 and CRL5816 cell lines.
(§9) The 2-deoxyglucose sensitivity was tested with the 4 cell lines being screened for CNS use with doses of 2-DG from 1-20 mM, the HTB10 cell line was also included in this screen as a positive control for 2-DG killing. […] However, 2-DG did result in slowed growth, and concentrations producing 50% inhibition (IC50) were calculated (based on a four-parameter fit of the data).

[3] = test system: four candidate cell lines; assay: 2-deoxyglucose sensitivity (growth) of cell lines screened for CNS use; format: cell-based, human
Description: as §9

CRL5816 cells = assay: sensitivity to killing by 2-deoxyglucose; format: cell-based, human; settings: 10 mM 2-deoxyglucose, 4 days
CRL 5803 = assay: sensitivity to killing by 2-deoxyglucose; format: cell-based, human; settings: up to 20 mM 2-DG
Description: as §8

CN[C@@H]1[C@@H](O)[C@@H](O[C@@H]2[C@@H](O)[C@H](O[C@H]3O[C@H]([C@@H](C)O)[C@@H](O)[C@H](O)[C@H]3N)[C@@H](N)C[C@H]2N)OC[C@]1(C)O [G418]
concentration found to kill non-transfected cells (ARPE-19): 175 µg/mL
concentration found to kill non-transfected cells (CRL5803): 500 µg/mL
concentration found to kill non-transfected cells (CCL205): 75 µg/mL
concentration found to kill non-transfected cells (CRL1440): 100 µg/mL
resistance or sensitivity to drug (CRL5867): sensitive to killing

CN(CC[C@H](N)CC(=O)N[C@H]1C=C[C@H](n2ccc(N)nc2=O)O[C@@H]1C(=O)O)C(=N)N [Blasticidin]
concentration found to kill non-transfected cells (ARPE-19): 3 µg/mL
concentration found to kill non-transfected cells (CRL5803): 2 µg/mL
concentration found to kill non-transfected cells (CCL205): 1 µg/mL
concentration found to kill non-transfected cells (CRL1440): 1 µg/mL
IC50 for Blsd-resistant growth (CRL1440 polyclones; CMV promoter-BSD): 0.6 µg/mL
IC50 for Blsd-resistant growth (CRL1440 polyclones; EF-1 promoter polyclones): 5 µg/mL
IC50 for Blsd-resistant growth (CRL1440 polyclones; UBq promoter polyclones): 21 µg/mL
IC50 for Blsd-resistant growth (ARPE-19 polyclones; CMV promoter-BSD): 12 µg/mL
IC50 for Blsd-resistant growth (ARPE-19 polyclones; EF-1a promoter-BSD): 4.5 µg/mL
IC50 for Blsd-resistant growth (ARPE-19 polyclones; UBq promoter-BSD): 3 µg/mL
shift in the inhibitory concentration of Blsd (ARPE-19 polyclones; best promoter): 8 fold
IC50 for Blsd-resistant growth (CRL 5803 polyclones; CMV promoter-BSD): 21 µg/mL
IC50 for Blsd-resistant growth (CRL 5803 polyclones; EF-1α promoter-BSD): 3 µg/mL
IC50 for Blsd-resistant growth (CRL 5803 polyclones; UBq promoter-BSD): 35 µg/mL
IC50 for growth in Blsd (CRL 5803 polyclones; CRL 5803 control cells transfected with NPT plasmid (no BSD)): 1 μg-Blsd/ml
shift in the inhibitory concentration of Blsd (CRL 5803 polyclones; CRL 5803 polyclones, best promoter): 30 fold
IC90 (CCL205 polyclones; CMV promoter): > 3 µg/mL
IC90 (CCL205 polyclones; EF-1 and UBq promoter constructs): 0.8 µg/mL (≈ 1.89 µM)
growth-based IC50 (CCL205 polyclones; all three promoter constructs): 0.6 µg/mL

C[C@@H]1O[C@@H](O[C@H]2C[C@@H](O)[C@]3(CO)[C@H]4[C@H](O)C[C@]5(C)[C@@H](C6=CC(=O)OC6)CC[C@]5(O)[C@@H]4CC[C@]3(O)C2)[C@H](O)[C@H](O)[C@H]1O [ouabain]
resistance or sensitivity to drug (CRL5867): resistance
resistance or sensitivity to drug (CRL1803): resistant
resistance or sensitivity to drug (CRL5808): resistant

O=c1[nH]cc(F)c(=O)[nH]1 [5-FU, 5-fluorouracil]
5-FU concentrations that slowed growth (ARPE-19 cells): > 5 µM
5-FU doses with killing and growth arrest (ARPE-19 cells): > 10 µM
doubling time after 5-FU exposure (ARPE-19 cells): 60 h
lethal dose of 5-FU (ARPE-19 cells): 500 µM
effect of 100 μM 5-FU (ARPE-19 cells; ARPE-19, 2 weeks of exposure): not a lethal dose
concentration of 5-FU that resulted in 50% killing [1]: < 35 µM
5-FU concentration at which killing began (A2058): > 500 µM
5-FU concentration that did not affect the cell line (A2058): < 10 µM
5-FU concentrations with dominantly cytostatic response (A2058): 10 to 100 µM
IC50 (BON cell line): ≥ 500 µM
IC50 (K3.31): 9 ± 1 µM
IC50 (K3.3): 5 ± 1 µM
IC50 (K3.4): 8.5 ± 0.3 µM

O=c1ccc2nc3ccc(O)cc3oc-2c1 [resorufin]
concentration toxic with many cells [2]: 1000 to 10000 nM

O=CC[C@@H](O)[C@H](O)[C@H](O)CO [2-DG, 2-deoxyglucose]
killing by 2-DG (HTB10; HTB10 positive control, doses 1-20 mM): killed with the lowest concentration
IC50 (HTB10; Homo sapiens, HTB10, read-out: 2-DG concentration for 50% killing): 600 µM
IC50 ([3]; Homo sapiens, range over the cell lines, four-parameter fit, read-out: concentrations producing 50% inhibition (IC50) of growth): 5000 to 11000 µM
killing by 2-DG ([3]; doses of 2-DG from 1-20 mM): no killing
viable cells after 2-deoxyglucose (CRL5816 cells): no detectable viable cells
sensitivity to killing by 2-deoxyglucose (CRL 5803): nor was it sensitive to killing
